Source: ChEMBL document CHEMBL4507283, “Data for DCP probe BI-1935” (2021)
Activity calls are given as the source filed them. The rule behind the calls is not given here.

What was measured:
[1] = system: Tyrosine-protein kinase ABL1 (Homo sapiens), P00519 [F317L]; conditions: Compound concentration 1000.0 nM
[2] = target: Bone morphogenetic protein receptor type-1A (Homo sapiens) (UniProt P36894); conditions: Compound concentration 1000.0 nM
[3] = target: G protein-coupled receptor kinase 4 (Homo sapiens) (UniProt P32298); conditions: Compound concentration 1000.0 nM
[4] = target: Sodium-dependent dopamine transporter (Homo sapiens, UniProt Q01959); conditions: Compound concentration 10.0 uM
[5] = target: Sodium/potassium-transporting ATPase subunit alpha-1 (Sus scrofa) (UniProt P05024); assay: ATP NA+/K+PI Eurofins-Panlabs selectivity data (BI); conditions: Compound concentration 10.0 uM
[6] = target: Serine/threonine-protein kinase PLK1 (Homo sapiens) (UniProt P53350); conditions: Compound concentration 1000.0 nM
[7] = target: Cyclin-dependent kinase 7 (Homo sapiens) (UniProt P50613); conditions: Compound concentration 1000.0 nM
[8] = target: Serine/threonine-protein kinase 38-like (Homo sapiens) (UniProt Q9Y2H1); conditions: Compound concentration 1000.0 nM
Sequence of Serine/threonine-protein kinase 38-like (Homo sapiens) (Q9Y2H1 2-464 limits assumed): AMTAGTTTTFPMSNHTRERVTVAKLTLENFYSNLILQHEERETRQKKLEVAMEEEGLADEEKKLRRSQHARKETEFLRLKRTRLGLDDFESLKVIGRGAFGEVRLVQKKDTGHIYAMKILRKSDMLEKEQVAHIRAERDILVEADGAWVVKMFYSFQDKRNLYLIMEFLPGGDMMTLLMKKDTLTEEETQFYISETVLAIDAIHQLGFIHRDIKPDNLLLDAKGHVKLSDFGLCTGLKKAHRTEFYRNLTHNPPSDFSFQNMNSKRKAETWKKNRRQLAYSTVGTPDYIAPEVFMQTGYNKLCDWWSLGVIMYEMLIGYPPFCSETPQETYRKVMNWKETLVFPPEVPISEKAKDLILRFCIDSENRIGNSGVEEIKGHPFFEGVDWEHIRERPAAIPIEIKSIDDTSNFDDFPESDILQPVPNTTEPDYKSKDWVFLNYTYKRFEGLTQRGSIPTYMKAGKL

[9] = target: cAMP-dependent protein kinase catalytic subunit PRKX (Homo sapiens) (UniProt P51817); conditions: Compound concentration 1000.0 nM
[10] = target: T1, Bifunctional epoxide hydrolase 2 (Homo sapiens, UniProt P34913); assay: Human soluble epoxide hydrolase inhibition
T1 sequence (P34913 whole entry): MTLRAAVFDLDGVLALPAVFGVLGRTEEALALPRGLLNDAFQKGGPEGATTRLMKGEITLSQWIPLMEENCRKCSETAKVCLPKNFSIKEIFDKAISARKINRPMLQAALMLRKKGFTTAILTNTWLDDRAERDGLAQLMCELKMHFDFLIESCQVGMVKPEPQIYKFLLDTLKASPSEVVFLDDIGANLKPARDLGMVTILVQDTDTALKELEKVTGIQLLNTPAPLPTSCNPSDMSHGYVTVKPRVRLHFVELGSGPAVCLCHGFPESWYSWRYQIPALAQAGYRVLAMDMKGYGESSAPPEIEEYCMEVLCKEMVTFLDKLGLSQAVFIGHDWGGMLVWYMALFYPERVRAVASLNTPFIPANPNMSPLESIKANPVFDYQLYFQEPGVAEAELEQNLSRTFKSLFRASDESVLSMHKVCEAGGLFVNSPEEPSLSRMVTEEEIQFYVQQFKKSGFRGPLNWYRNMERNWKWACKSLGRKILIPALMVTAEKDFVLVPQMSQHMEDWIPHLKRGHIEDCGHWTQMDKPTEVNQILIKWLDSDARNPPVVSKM

[11] = system: Epidermal growth factor receptor (Homo sapiens), P00533 [L861Q]; conditions: Compound concentration 1000.0 nM
[12] = target: Casein kinase I isoform delta (Homo sapiens) (UniProt P48730); conditions: Compound concentration 1000.0 nM
[13] = target: High affinity nerve growth factor receptor (Homo sapiens) (UniProt P04629); conditions: Compound concentration 1000.0 nM
Sequence of High affinity nerve growth factor receptor (Homo sapiens) (P04629 33-796 limits assumed): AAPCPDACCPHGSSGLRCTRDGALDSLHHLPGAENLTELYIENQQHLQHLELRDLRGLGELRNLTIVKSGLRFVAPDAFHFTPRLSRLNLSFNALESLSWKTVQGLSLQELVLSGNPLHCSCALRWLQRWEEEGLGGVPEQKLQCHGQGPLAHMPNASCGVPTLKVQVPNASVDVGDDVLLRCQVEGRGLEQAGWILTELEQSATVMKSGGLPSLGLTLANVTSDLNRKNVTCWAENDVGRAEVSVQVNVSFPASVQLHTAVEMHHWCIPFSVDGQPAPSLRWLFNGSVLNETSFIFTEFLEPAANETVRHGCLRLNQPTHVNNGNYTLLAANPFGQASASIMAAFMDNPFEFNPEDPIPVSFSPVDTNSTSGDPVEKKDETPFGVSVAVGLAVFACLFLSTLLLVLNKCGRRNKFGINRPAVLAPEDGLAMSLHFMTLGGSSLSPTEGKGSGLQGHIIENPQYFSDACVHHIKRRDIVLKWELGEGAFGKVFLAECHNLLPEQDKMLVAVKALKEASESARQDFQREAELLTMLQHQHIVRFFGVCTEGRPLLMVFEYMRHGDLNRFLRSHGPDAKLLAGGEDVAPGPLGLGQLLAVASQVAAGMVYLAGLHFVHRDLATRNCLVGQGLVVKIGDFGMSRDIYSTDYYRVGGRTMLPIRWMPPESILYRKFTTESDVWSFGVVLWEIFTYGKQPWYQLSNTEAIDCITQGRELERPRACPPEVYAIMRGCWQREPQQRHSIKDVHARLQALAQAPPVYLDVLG

[14] = system: GABA-B receptor (GABBR1, rat); assay: GABAB/RA Eurofins-Panlabs selectivity data (BI); conditions: Compound concentration 10.0 uM
[15] = target: MAP kinase-activated protein kinase 5 (Homo sapiens) (UniProt Q8IW41); conditions: Compound concentration 1000.0 nM
[16] = system: Epidermal growth factor receptor (Homo sapiens), P00533 [UNDEFINED MUTATION]; conditions: Compound concentration 1000.0 nM
[17] = target: Serine/threonine-protein kinase Nek6 (Homo sapiens) (UniProt Q9HC98); conditions: Compound concentration 1000.0 nM
[18] = target: Histamine H2 receptor (Homo sapiens) (UniProt P25021); conditions: Compound concentration 10.0 uM
[19] = target: Serine/threonine-protein kinase 4 (Homo sapiens) (UniProt Q13043); conditions: Compound concentration 1000.0 nM
Sequence of Serine/threonine-protein kinase 4 (Homo sapiens) (Q13043 whole entry): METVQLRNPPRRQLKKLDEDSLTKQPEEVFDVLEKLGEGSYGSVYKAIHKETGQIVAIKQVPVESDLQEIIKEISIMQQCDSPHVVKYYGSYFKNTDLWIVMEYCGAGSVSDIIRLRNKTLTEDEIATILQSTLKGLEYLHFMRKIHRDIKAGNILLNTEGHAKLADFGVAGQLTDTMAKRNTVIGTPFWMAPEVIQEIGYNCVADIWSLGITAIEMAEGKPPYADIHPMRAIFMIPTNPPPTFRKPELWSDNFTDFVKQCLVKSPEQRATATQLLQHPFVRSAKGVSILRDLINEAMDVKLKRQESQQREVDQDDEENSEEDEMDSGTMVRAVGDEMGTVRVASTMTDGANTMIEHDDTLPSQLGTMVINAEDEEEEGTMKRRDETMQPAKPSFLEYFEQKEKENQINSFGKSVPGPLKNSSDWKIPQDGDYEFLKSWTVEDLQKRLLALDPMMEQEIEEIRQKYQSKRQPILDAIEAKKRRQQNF

[20] = target: Acetylcholine receptor subunit alpha (Homo sapiens) (UniProt P02708); assay: NACH/H Eurofins-Panlabs selectivity data (BI); conditions: Compound concentration 10.0 uM
Sequence of Acetylcholine receptor subunit alpha (Homo sapiens) (P02708 whole entry): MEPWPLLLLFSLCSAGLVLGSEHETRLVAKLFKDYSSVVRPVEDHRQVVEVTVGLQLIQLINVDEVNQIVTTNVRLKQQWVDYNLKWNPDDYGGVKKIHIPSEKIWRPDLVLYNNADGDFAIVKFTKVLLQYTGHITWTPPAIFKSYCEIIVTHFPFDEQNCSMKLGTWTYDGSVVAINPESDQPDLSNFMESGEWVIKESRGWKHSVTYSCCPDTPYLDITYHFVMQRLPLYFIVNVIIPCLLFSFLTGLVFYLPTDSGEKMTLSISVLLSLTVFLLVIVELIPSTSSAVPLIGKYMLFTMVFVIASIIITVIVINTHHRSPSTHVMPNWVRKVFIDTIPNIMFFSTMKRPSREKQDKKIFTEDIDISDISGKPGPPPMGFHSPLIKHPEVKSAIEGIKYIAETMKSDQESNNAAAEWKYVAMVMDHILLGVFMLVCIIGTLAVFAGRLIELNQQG

[21] = target: G protein-coupled receptor kinase 3 (Homo sapiens) (UniProt P35626); conditions: Compound concentration 1000.0 nM
[22] = target: Mitogen-activated protein kinase kinase kinase 3 (Homo sapiens) (UniProt Q99759); conditions: Compound concentration 1000.0 nM
Sequence of Mitogen-activated protein kinase kinase kinase 3 (Homo sapiens) (Q99759 whole entry, canonical isoform): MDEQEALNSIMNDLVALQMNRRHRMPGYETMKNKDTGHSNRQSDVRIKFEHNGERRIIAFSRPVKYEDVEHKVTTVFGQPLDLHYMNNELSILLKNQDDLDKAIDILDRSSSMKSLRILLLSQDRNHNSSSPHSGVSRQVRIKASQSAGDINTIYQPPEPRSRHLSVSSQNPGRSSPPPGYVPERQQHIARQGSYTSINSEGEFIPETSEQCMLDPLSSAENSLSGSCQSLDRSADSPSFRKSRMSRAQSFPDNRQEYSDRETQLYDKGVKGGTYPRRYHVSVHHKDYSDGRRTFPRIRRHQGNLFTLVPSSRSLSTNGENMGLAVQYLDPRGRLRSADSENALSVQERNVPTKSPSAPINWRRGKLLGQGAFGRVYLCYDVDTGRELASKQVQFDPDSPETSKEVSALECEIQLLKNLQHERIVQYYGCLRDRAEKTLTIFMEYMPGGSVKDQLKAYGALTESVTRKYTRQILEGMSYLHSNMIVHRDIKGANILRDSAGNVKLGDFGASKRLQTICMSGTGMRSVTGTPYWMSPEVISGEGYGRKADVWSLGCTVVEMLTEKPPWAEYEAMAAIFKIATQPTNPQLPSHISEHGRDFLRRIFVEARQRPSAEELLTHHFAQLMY

[23] = target: Casein kinase I isoform epsilon (Homo sapiens) (UniProt P49674); conditions: Compound concentration 1000.0 nM
[24] = system: Epidermal growth factor receptor (Homo sapiens), P00533 [G719S]; conditions: Compound concentration 1000.0 nM
[25] = target: 3',5'-cyclic-AMP phosphodiesterase 4A (Homo sapiens) (UniProt P27815); assay: PDE-IV/HU Eurofins-Panlabs selectivity data (BI); conditions: Compound concentration 10.0 uM
[26] = system: Receptor-type tyrosine-protein kinase FLT3 (Homo sapiens), P36888 [R834Q]; conditions: Compound concentration 1000.0 nM
[27] = target: Tyrosine-protein kinase TXK (Homo sapiens) (UniProt P42681); conditions: Compound concentration 1000.0 nM
[28] = target: Cyclin-dependent kinase 19 (Homo sapiens) (UniProt Q9BWU1); conditions: Compound concentration 1000.0 nM
[29] = target: Mitogen-activated protein kinase kinase kinase 4 (Homo sapiens) (UniProt Q9Y6R4); conditions: Compound concentration 1000.0 nM
[30] = system: Epidermal growth factor receptor (Homo sapiens), P00533 [L858R]; conditions: Compound concentration 1000.0 nM
[31] = target: Discoidin domain-containing receptor 2 (Homo sapiens) (UniProt Q16832); conditions: Compound concentration 1000.0 nM
[32] = system: Receptor-type tyrosine-protein kinase FLT3 (Homo sapiens), P36888 [UNDEFINED MUTATION]; conditions: Compound concentration 1000.0 nM
[33] = target: Serine/threonine-protein kinase LATS2 (Homo sapiens) (UniProt Q9NRM7); conditions: Compound concentration 1000.0 nM
Sequence of Serine/threonine-protein kinase LATS2 (Homo sapiens) (Q9NRM7 whole entry): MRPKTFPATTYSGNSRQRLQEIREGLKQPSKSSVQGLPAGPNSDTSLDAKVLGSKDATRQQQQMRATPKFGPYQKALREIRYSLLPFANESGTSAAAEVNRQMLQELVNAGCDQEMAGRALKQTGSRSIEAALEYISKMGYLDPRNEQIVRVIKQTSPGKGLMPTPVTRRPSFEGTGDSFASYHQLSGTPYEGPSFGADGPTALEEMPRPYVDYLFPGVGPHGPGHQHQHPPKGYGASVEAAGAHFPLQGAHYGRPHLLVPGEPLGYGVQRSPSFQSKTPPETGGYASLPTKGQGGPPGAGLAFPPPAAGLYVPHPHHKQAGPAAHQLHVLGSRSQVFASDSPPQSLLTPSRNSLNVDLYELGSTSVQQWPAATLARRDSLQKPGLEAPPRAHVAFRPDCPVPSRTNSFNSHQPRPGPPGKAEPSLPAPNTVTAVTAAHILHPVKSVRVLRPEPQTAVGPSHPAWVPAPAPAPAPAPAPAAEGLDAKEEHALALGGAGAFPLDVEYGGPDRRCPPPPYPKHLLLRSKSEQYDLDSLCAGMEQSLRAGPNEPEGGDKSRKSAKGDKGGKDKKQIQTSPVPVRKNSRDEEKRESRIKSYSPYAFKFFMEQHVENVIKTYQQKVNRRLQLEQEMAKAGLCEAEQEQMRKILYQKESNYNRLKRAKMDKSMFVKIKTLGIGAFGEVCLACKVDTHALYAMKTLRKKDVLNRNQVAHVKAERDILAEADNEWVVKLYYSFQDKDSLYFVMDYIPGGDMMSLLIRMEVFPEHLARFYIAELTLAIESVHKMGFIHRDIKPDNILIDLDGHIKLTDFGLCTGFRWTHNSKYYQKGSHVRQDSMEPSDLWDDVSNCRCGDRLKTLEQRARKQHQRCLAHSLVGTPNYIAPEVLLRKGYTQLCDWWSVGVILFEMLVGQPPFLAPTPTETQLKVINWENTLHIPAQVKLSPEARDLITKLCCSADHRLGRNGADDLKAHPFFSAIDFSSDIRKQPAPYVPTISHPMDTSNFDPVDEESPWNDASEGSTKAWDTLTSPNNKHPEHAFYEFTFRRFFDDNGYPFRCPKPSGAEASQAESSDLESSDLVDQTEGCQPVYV

[34] = target: RAC-beta serine/threonine-protein kinase (Homo sapiens) (UniProt P31751); conditions: Compound concentration 1000.0 nM
Sequence of RAC-beta serine/threonine-protein kinase (Homo sapiens) (P31751 whole entry): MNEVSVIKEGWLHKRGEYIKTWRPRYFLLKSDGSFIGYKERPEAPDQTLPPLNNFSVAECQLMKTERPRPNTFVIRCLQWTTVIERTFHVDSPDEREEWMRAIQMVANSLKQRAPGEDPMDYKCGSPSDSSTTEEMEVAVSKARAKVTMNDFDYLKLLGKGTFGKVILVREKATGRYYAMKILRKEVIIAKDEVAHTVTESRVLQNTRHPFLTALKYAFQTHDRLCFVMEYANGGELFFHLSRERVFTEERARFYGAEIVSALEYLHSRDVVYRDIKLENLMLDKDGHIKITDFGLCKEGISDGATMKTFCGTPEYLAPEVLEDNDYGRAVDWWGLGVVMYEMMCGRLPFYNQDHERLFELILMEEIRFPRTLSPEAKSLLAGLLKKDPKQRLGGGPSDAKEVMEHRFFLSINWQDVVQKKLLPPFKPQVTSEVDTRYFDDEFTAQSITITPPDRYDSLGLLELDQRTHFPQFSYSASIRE

[35] = target: ALK tyrosine kinase receptor (Homo sapiens) (UniProt Q9UM73); conditions: Compound concentration 1000.0 nM
[36] = target: Mitotic checkpoint serine/threonine-protein kinase BUB1 (Homo sapiens) (UniProt O43683); conditions: Compound concentration 1000.0 nM
[37] = target: Mitogen-activated protein kinase kinase kinase 13 (Homo sapiens) (UniProt O43283); conditions: Compound concentration 1000.0 nM
[38] = target: Tyrosine-protein kinase ZAP-70 (Homo sapiens) (UniProt P43403); conditions: Compound concentration 1000.0 nM
Sequence of Tyrosine-protein kinase ZAP-70 (Homo sapiens) (P43403 whole entry): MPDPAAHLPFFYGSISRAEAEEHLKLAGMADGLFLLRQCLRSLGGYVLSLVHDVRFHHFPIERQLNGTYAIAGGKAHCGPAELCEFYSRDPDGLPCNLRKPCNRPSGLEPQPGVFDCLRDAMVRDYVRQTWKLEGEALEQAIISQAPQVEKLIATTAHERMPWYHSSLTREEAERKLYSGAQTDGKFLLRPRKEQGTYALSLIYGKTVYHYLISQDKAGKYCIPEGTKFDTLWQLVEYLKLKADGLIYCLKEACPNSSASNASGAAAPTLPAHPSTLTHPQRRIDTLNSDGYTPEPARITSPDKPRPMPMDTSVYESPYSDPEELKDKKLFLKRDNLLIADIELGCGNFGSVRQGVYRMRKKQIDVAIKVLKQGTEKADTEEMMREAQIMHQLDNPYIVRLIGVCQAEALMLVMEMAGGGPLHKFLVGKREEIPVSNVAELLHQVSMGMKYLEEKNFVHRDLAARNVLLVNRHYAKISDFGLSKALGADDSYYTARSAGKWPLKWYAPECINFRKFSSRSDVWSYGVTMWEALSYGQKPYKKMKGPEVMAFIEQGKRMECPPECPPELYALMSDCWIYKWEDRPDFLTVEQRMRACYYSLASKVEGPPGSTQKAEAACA

Q: Which residual activity [1] does the source give for CCOCCn1cc(C(=O)Nc2ccc(-n3nc(-c4cccnc4)cc3C(F)(F)F)cn2)ccc1=O [BI 1935] here?
A: 100%

Q: What about the residual activity [2] of the same molecule?
A: 70%

Q: What about the residual activity [3] of the same molecule?
A: 100%

Q: And the inhibition [4]?
A: 82.1%

Q: What about the residual activity [5] of the same molecule?
A: 94%

Q: What about the residual activity [6] of the same molecule?
A: 100%

Q: What about the residual activity [7] of the same molecule?
A: 88%

Q: What about the residual activity [8] of the same molecule?
A: 66%

Q: And the residual activity [9]?
A: 100%

Q: What about the IC50 [10] of the same molecule?
A: 7 nM (active)

Q: And the residual activity [11]?
A: 100%

Q: And the residual activity [12]?
A: 100%

Q: What about the residual activity [13] of the same molecule?
A: 100%

Q: And the residual activity [14]?
A: 94%

Q: What about the residual activity [15] of the same molecule?
A: 87%

Q: What about the residual activity [16] of the same molecule?
A: 100%

Q: What about the residual activity [17] of the same molecule?
A: 96%

Q: What about the inhibition [18] of the same molecule?
A: -3.48%

Q: And the residual activity [19]?
A: 100%

Q: What about the residual activity [20] of the same molecule?
A: 114%

Q: And the residual activity [21]?
A: 76%

Q: What about the residual activity [22] of the same molecule?
A: 100%

Q: What about the residual activity [23] of the same molecule?
A: 100%

Q: What about the residual activity [24] of the same molecule?
A: 100%

Q: What about the residual activity [25] of the same molecule?
A: 86%

Q: What about the residual activity [26] of the same molecule?
A: 100%

Q: What about the residual activity [27] of the same molecule?
A: 81%

Q: What about the residual activity [28] of the same molecule?
A: 95%

Q: What about the residual activity [29] of the same molecule?
A: 59%

Q: What about the residual activity [30] of the same molecule?
A: 90%

Q: And the residual activity [31]?
A: 100%

Q: And the residual activity [32]?
A: 86%

Q: And the residual activity [33]?
A: 65%

Q: What about the residual activity [34] of the same molecule?
A: 100%

Q: What about the residual activity [35] of the same molecule?
A: 79%

Q: And the residual activity [36]?
A: 79%

Q: What about the residual activity [37] of the same molecule?
A: 100%

Q: What about the residual activity [38] of the same molecule?
A: 67%
